The source of these data is patent US5447720A, “Composition and method for treatment of hemoglobinopathies” (Fadulu; Sunday O., priority 1993, dated 1995).

The test system of assay [1] is sickling. To be noted: words; cited from earlier work.
Assay [2] deals with HbF. To be noted: sickle cell patients; words; cited from earlier work.
Assay [3] has as its system sickling. Briefly: Anti-sickling activity of acid components (test not specified). To be noted: words.

As to `O=C(O)c1ccccc1CO` [2-hydroxymethylbenzoic acid], the “in vitro anti-sickling effect (literature)” value in assay [1] is reported as “in vitro nonsickling characteristics”.

On to `Nc1ncn([C@@H]2O[C@H](CO)[C@@H](O)[C@H]2O)c(=O)n1` [5-azacytidine], for which the “effect on HbF levels (literature)” value in assay [2] was “increased HbF levels”.

`CCCCC/C=C\C/C=C\CCCCCCCC(=O)O` [linoleic]: the “anti-sickling activity of less polar acids” value (from here on “anti-sickling activity”) in assay [3] is listed as “little if any anti-sickling activity”.

On to `CC/C=C\C/C=C\C/C=C\CCCCCCCC(=O)O` [linolenic], for which the “anti-sickling activity” value in assay [3] is recorded as “little if any anti-sickling activity”.

With `CCCCCCCC/C=C\CCCCCCCC(=O)O` [oleic acids], in assay [3], the “anti-sickling activity” value is recorded as “little if any anti-sickling activity”.

In the case of `CCCCCCCCCCCCCCCCCC(=O)O` [stearic], in assay [3], the “anti-sickling activity” value was “little if any anti-sickling activity”.

With arginine butyrate, in assay [2], the “effect on HbF levels (literature)” value is given as “rapid stimulation of the HbF”.
